# Results as given in paper PMC7515950, “Physiologically based pharmacokinetic modeling to assess metabolic drug–drug interaction risks and inform the drug label for fedratinib” (Cancer Chemotherapy and Pharmacology, 2020).
# Where “and” joins values, the source holds several entries; their conditions need not be identical. Equal entries are not always repeated. Where two headings read alike, the source gives them in different places.
# Columns and labels:
# OATP1B3 = biological target: T1, OATP1B3 (Homo sapiens, UniProt Q9NPD5); assay: OATP1B3 inhibition, HEK-hOATP1B3 cells (TRE0075); assay type: in vitro ADME; design: expressed in transfected cells; host or cells: HEK^TR-hOATP1B3
# T1 sequence (Q9NPD5 1-702): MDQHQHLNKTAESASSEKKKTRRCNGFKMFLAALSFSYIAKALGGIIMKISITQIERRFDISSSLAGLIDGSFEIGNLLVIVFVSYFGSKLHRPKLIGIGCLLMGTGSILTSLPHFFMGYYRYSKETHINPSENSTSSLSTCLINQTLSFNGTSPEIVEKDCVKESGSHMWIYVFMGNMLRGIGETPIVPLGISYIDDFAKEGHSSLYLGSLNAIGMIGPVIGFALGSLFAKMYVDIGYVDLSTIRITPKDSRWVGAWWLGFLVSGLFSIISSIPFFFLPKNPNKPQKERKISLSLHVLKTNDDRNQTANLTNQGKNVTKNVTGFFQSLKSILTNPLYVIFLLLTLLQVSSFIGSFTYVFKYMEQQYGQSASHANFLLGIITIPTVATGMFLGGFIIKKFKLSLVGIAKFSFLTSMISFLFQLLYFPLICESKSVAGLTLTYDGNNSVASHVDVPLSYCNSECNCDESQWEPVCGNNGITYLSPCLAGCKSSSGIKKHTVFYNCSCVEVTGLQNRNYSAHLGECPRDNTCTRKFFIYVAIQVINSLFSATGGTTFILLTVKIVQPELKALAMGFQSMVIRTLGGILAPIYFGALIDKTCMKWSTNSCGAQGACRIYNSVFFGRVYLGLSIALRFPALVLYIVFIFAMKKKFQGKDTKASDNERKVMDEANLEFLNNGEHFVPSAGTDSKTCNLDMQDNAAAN
# Description: (§1) The reported IC50 values were converted to Ki values using the Cheng-Prusoff equation [10]:
# (§2) The transporter inhibition parameters (Ki) for fedratinib were derived from the experimentally determined IC50 values using the Cheng-Prusoff equation, i.e., Ki = IC50/(1+[S]/Km) with the substrate concentrations ([S]) reported in the experimental studies and the substrate Km values collected from literature, as summarized in Table 13.
# [1] = healthy subjects, cited from earlier work; for AUC (AUCinf) / Cmax: observation, ref Study TDU12620/INT12894
# P-gp = P-gp (Homo sapiens, UniProt P08183); assay: P-gp interaction in Caco-2/TC7 (Study AIV0208); assay type: in vitro ADME; design: endogenous in cells; host or cells: Caco-2/TC7
# Description: as §1, §2
# [2] = design: method as in PMID 32248324; conditions: healthy subjects, observation, cited from earlier work; for AUC GM Ratio (90% CI): 300 mg single dose with vs without ketoconazole 200 mg BID, AUCinf
# [3] = Physicochemical properties (Study QUA-PG-2011-20593); conditions: for pKa: free form is a diprotic base
# Description: (§3) The physicochemical properties and blood binding parameters of fedratinib including molecular weight, logP, pKa, fu, and B/P were experimentally measured and listed in Table 1.
# [4] = In vitro binding to human plasma proteins (Study LPR1082); assay type: in vitro ADME; conditions: mainly bound to α1-acid glycoprotein, read-out: fu (unbound fraction in plasma)
# Description: as §3
# [5] = system: cryopreserved human hepatocytes; assay: Contribution of metabolic enzymes in cryopreserved human hepatocytes (MIH0888); assay type: in vitro ADME; conditions: 1 µM fedratinib
# BCRP = biological target: T2, BCRP (Homo sapiens, UniProt Q9UNQ0); assay: BCRP inhibition, vesicle-based (TRI0013); assay type: in vitro ADME
# T2 sequence (Q9UNQ0 1-655): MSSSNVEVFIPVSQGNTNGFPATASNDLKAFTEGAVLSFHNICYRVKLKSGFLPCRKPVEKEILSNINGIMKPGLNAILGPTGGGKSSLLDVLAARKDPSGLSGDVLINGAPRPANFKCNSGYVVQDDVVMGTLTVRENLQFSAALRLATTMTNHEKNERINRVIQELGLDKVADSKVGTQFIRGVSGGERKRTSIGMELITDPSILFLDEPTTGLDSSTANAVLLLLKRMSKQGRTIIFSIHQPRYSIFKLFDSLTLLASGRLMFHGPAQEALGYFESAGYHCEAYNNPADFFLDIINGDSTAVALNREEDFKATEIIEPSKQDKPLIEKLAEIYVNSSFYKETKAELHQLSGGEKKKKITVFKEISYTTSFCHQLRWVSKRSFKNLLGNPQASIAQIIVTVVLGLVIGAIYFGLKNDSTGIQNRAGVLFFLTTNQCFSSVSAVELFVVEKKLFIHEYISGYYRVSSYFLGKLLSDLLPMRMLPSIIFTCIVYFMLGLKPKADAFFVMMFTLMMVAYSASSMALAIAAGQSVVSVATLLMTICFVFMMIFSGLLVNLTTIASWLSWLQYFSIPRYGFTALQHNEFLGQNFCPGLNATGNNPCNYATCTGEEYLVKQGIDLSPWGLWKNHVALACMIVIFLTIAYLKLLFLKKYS
# Description: as §1, §2
# Caco-2/TC7 = Caco-2/TC7 permeability (Study AIV0208); assay type: in vitro ADME, human; conditions: Apical pH:Basolateral pH 7.4:7.4; Simcyp input
# Description: (§4) By default, the QGut is set to be the mean value (i.e., 6.5 L/h) in the PBPK model of fedratinib.
# [6] = Caco-2/TC7 permeability (Study AIV0208); assay type: in vitro ADME, human; conditions: human, Caco-2
# Description: as §4
# [7] = 300 mg single dose + ketoconazole 200 mg BID, GM
# [8] = 300 mg single dose + ketoconazole 200 mg BID, Mean (SD)
# [9] = 300 mg single dose alone, Mean (SD)
# Chain of P-gp (P08183 whole entry): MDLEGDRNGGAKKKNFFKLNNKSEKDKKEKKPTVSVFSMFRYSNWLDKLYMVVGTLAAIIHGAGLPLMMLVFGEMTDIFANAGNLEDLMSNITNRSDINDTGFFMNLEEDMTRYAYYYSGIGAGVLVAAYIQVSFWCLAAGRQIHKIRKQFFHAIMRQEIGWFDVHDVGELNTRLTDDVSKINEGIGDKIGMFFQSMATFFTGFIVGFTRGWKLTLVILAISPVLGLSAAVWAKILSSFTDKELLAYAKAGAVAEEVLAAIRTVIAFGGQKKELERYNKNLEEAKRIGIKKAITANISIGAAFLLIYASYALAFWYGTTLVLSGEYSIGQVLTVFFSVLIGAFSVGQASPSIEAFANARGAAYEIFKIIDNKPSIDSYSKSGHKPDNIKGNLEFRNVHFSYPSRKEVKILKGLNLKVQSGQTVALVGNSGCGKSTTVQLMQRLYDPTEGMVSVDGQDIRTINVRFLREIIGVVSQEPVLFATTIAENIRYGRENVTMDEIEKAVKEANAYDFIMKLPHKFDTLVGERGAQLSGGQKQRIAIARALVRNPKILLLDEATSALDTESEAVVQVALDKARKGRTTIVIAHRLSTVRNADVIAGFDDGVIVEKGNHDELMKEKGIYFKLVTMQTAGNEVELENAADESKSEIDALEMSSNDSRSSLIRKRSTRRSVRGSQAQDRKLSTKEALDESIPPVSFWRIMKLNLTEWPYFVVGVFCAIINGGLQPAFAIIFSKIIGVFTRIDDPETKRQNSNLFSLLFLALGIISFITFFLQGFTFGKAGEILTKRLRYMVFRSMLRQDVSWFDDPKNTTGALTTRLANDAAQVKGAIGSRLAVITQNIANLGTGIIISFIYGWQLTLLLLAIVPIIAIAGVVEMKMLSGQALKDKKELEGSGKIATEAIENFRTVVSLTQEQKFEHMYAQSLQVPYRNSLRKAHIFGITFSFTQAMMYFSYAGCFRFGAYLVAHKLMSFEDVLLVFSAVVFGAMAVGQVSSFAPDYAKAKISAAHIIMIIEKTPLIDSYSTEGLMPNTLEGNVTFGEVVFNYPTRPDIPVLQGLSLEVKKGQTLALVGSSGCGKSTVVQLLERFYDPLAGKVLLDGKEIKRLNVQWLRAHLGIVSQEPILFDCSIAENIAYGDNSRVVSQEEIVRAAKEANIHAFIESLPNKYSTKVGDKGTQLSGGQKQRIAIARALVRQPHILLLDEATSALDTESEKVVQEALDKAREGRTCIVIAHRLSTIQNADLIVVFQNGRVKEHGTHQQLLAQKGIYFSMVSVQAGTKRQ
structure (smiles),measurement,setting,value
Cc1cnc(Nc2ccc(OCCN3CCCC3)cc2)nc1Nc1cccc(S(=O)(=O)NC(C)(C)C)c1 [Fedratinib],Ki,"OATP1B3; from IC50 by Cheng-Prusoff, probe CCK8",8.4 µM
same,IC50,OATP1B3; probe CCK8 0.5 μM,9.51 µM
same,AUC (AUCinf),"[1]; 300 mg single dose, GM",6530 ng·h/mL
same,Cmax,"[1]; 300 mg single dose, GM",497 ng/mL
same,AUC (AUCinf),"[1]; 300 mg single dose, Mean (SD)",6730 (1990) ng/mL·h
same,Cmax,"[1]; 300 mg single dose, Mean (SD)",521 (189) ng/mL
same,AUC (AUCinf),"[1]; 500 mg single dose, GM",13200 ng·h/mL
same,Cmax,"[1]; 500 mg single dose, GM",683 ng/mL
same,AUC (AUCinf),"[1]; 500 mg single dose, Mean (SD)",13900 (5240) ng/mL·h
same,Cmax,"[1]; 500 mg single dose, Mean (SD)",720 (243) ng/mL
same,dose-normalized AUC,"[1]; single doses above 100 mg, ref [3]",30 ng·h/mL/mg
same,P-gp substrate in vitro,P-gp,substrate
same,Ki,"P-gp; from IC50 by Cheng-Prusoff, probe digoxin",10 µM
same,IC50,P-gp; probe digoxin 5 μM,10.1 µM
same,AUC (AUCinf),[2]; [7],25000 ng·h/mL
same,Cmax,[2]; [7],741 ng/mL
same,AUC (AUCinf),[2]; [8],"26,800 (10,600) ng/mL·h"
same,Cmax,[2]; [8],812 (374) ng/mL
same,AUC (AUCinf),"[2]; 300 mg single dose alone, GM",6460 ng·h/mL
same,Cmax,"[2]; 300 mg single dose alone, GM",379 ng/mL
same,AUC (AUCinf),[2]; [9],7440 (4060) ng/mL·h
same,Cmax,[2]; [9],444 (262) ng/mL
same,AUC GM Ratio (90% CI),[2],3.06 (2.46–3.80)
same,AUC GM Ratio (90% CI),[2]; listed as fedratinib,3.06
same,LogPo:w,[3]; Study QUA-PG-2011-20593,3.500
same,logP,"[3]; octanol/water, Study QUA-PG-2011-20593",3.5
same,pKa,[3]; pKa1 (base),6.4
same,pKa,[3]; pKa2 (base),9.6
same,fraction unbound,[4],0.05
same,"hepatic metabolic clearance percentage, CYP2C19",[5],17% and ~ 17%
same,"hepatic metabolic clearance percentage, CYP2D6",[5],2% and ~ 2%
same,"hepatic metabolic clearance percentage, CYP3A",[5],63% and ~ 63%
same,"metabolic contribution to hepatic clearance, other liver enzymes",[5],~ 18%
same,Ki,"BCRP; from IC50 by Cheng-Prusoff, probe methotrexate",27.8 µM
same,IC50,BCRP; probe methotrexate 100 μM,29.9 µM
same,PCaco-2,Caco-2/TC7,17.800 10E-06 cm/s
same,Papp at 40 μM,"[6]; Apical pH:Basolateral pH 6.5:7.4, 40 μM fedratinib",0.21 ×10⁻⁶ cm/s
same,Papp at 100 μM,"[6]; Apical pH:Basolateral pH 7.4:7.4, 100 μM fedratinib",17.8 ×10⁻⁶ cm/s
